Among the data in ChEMBL document CHEMBL1649429, “Novel plasmid-encoded ceftazidime-hydrolyzing CTX-M-53 extended-spectrum beta-lactamase from Salmonella enterica serotypes Westhampton and Senftenberg” (Antimicrob Agents Chemother, 2009) are MIC values, retold here.

The subject of experiment [1] is Escherichia coli. Nature of the experiment: Antimicrobial activity against Escherichia coli DH5[alpha] harboring recombinant plasmid carrying CTX-M-53 gene by disk diffusion method. It is filed as functional. (In general: Agar diffusion results depend on both activity and mobility in agar.)
Experiment [2] can be described thus: Antimicrobial activity against Salmonella enterica serotype Westhampton isolate 04CEB8273SAL expressing CTX-M-53 gene […]. The format is functional, Salmonella enterica subsp. enterica serovar Westhampton.
In experiment [3] the test system is Escherichia coli. In words: Antimicrobial activity against Escherichia coli DH10B harboring natural plasmid pWES-1 carrying CTX-M-53 gene […]. Particulars: K-12 DH10B. The format is functional.
The test system of experiment [4] is Escherichia coli. Nature of the experiment: Antimicrobial activity against Escherichia coli DH10B by disk diffusion method. It is filed as functional. Particulars: K-12 DH10B.
Experiment [5] concerns Escherichia coli. Nature of the experiment: Antimicrobial activity against Escherichia coli DH5[alpha] harboring phagemid pBK-CMV […]. The format is functional.
Experiment [6] has as its system Escherichia coli. Nature of the experiment: Antimicrobial activity against Escherichia coli ATCC 25922 by disk diffusion method. It is filed as functional.
Experiment [7] concerns Escherichia coli. In words: Antimicrobial activity against Escherichia coli DH10B by Etest. The format is functional. The settings on record: K-12 DH10B.
In experiment [8] the test system is Escherichia coli. In words: Antimicrobial activity against Escherichia coli DH5[alpha] harboring phagemid pBK-CMV by Etest. It is filed as functional.
Experiment [9] in a line: Antimicrobial activity against Salmonella enterica serotype Westhampton isolate 04CEB8273SAL expressing CTX-M-53 gene by Etest. The format is functional, Salmonella enterica subsp. enterica serovar Westhampton.
Experiment [10] has as its system Escherichia coli. Nature of the experiment: Antimicrobial activity against Escherichia coli ATCC 25922 by Etest. It is filed as functional.
The subject of experiment [11] is Escherichia coli. Nature of the experiment: Antimicrobial activity against Escherichia coli DH5[alpha] harboring phagemid pBK-CMV […] in presence of clavulanic acid. It is filed as functional.
Experiment [12] concerns Escherichia coli. In words: Antimicrobial activity against Escherichia coli DH10B […] in presence of clavulanic acid. It is filed as functional. The settings on record: K-12 DH10B.
Experiment [13] concerns Escherichia coli. Nature of the experiment: Antimicrobial activity against Escherichia coli DH10B harboring natural plasmid pWES-1 carrying CTX-M-53 gene […] in presence of clavulanic acid. It is filed as functional. Particulars: K-12 DH10B.
Experiment [14] concerns Escherichia coli. In words: Antimicrobial activity against Escherichia coli ATCC 25922 […] in presence of clavulanic acid. The format is functional.
Experiment [15] deals with Escherichia coli. In words: Antimicrobial activity against Escherichia coli DH5[alpha] harboring recombinant plasmid carrying CTX-M-53 gene […] in presence of clavulanic acid. It is filed as functional.
Experiment [16] in a line: Antimicrobial activity against Salmonella enterica serotype Westhampton isolate 04CEB8273SAL expressing CTX-M-53 gene […] in presence of clavulanic acid. The format is functional, Salmonella enterica subsp. enterica serovar Westhampton.
Experiment [17] can be described thus: Antimicrobial activity against Salmonella enterica serotype Westhampton isolate 04CEB8273SAL CTX-M-53 gene by Etest in presence of clavulanic acid. It is filed as functional, Salmonella enterica subsp. enterica serovar Westhampton.
For experiment [18], the system named is Escherichia coli. Nature of the experiment: Antimicrobial activity against Escherichia coli DH5[alpha] harboring recombinant plasmid carrying CTX-M-53 gene by Etest in presence of clavulanic acid. It is filed as functional.
Experiment [19] concerns Escherichia coli. In words: Antimicrobial activity against Escherichia coli ATCC 25922 by Etest in presence of clavulanic acid. It is filed as functional.
Experiment [20] relates to Escherichia coli. Nature of the experiment: Antimicrobial activity against Escherichia coli DH5[alpha] harboring phagemid pBK-CMV by Etest in presence of clavulanic acid. The format is functional.
The test system of experiment [21] is Escherichia coli. In words: Antimicrobial activity against Escherichia coli DH10B by Etest in presence of clavulanic acid. The format is functional. The settings on record: K-12 DH10B.
For experiment [22], the system named is Escherichia coli. In words: Antimicrobial activity against Escherichia coli DH10B harboring natural plasmid pWES-1 carrying CTX-M-53 gene by Etest in presence of clavulanic acid. The settings on record: K-12 DH10B. It is filed as functional.
The test system of experiment [23] is Escherichia coli. In words: Antimicrobial activity against Escherichia coli ATCC 25922 […] in presence of Tazobactam. It is filed as functional.
Experiment [24] has as its system Escherichia coli. Nature of the experiment: Antimicrobial activity against Escherichia coli DH5[alpha] harboring recombinant plasmid carrying CTX-M-53 gene […] in presence of Tazobactam. It is filed as functional.
Experiment [25] can be described thus: Antimicrobial activity against Salmonella enterica serotype Westhampton isolate 04CEB8273SAL expressing CTX-M-53 gene […] in presence of Tazobactam. It is filed as functional, Salmonella enterica subsp. enterica serovar Westhampton.
Experiment [26] concerns Escherichia coli. Nature of the experiment: Antimicrobial activity against Escherichia coli DH5[alpha] harboring phagemid pBK-CMV […] in presence of Tazobactam. The format is functional.
For experiment [27], the system named is Escherichia coli. In words: Antimicrobial activity against Escherichia coli DH10B […] in presence of Tazobactam. It is filed as functional. Particulars: K-12 DH10B.
Experiment [28] deals with Escherichia coli. In words: Antimicrobial activity against Escherichia coli DH10B harboring natural plasmid pWES-1 carrying CTX-M-53 gene […] in presence of Tazobactam. The format is functional. Particulars: K-12 DH10B.

SMILES strings stand for the structures. ≈ marks a conversion by molar mass, not a printed value.

For `CO/N=C(\C(=O)N[C@@H]1C(=O)N2C(C(=O)[O-])=C(C[N+]3(C)CCCC3)CS[C@H]12)c1csc(N)n1`, the MIC with Escherichia coli [1] is > 32 µg/mL; in [2], > 32 µg/mL; in the experiment with Escherichia coli [3], 32 µg/mL (≈ 66.6 µM); in the experiment with Escherichia coli [4], 0.125 µg/mL (≈ 0.26 µM).

`CO[C@@]1(NC(=O)Cc2cccs2)C(=O)N2C(C(=O)O)=C(COC(N)=O)CS[C@@H]21` [CEFOXITIN]: the MIC in the experiment on Escherichia coli [1] amounted to 4 µg/mL; in experiment [2], 8 µg/mL (≈ 18.7 µM); in the experiment with Escherichia coli [3] it was 4 µg/mL (≈ 9.36 µM); against Escherichia coli [5], 2 µg/mL (≈ 4.68 µM); against Escherichia coli [6], 2 µg/mL (≈ 4.68 µM); in the experiment on Escherichia coli [4], 4 µg/mL (≈ 9.36 µM).

In the case of `C[C@H]1[C@H](NC(=O)/C(=N\OC(C)(C)C(=O)O)c2csc(N)n2)C(=O)N1S(=O)(=O)O` [AZTREONAM], the MIC is 128 µg/mL in the experiment with Escherichia coli [1]; > 256 µg/mL in experiment [2]; 128 µg/mL (≈ 294 µM) against Escherichia coli [3]; < 0.06 µg/mL with Escherichia coli [5]; 0.06 µg/mL (≈ 0.138 µM) against Escherichia coli [6]; 0.25 µg/mL (≈ 0.574 µM) in the experiment with Escherichia coli [4].

For `CO/N=C(\C(=O)N[C@@H]1C(=O)N2C(C(=O)O)=C(CSc3nc(=O)c(O)nn3C)CS[C@H]12)c1csc(N)n1` [CEFTRIAXONE], the MIC against Escherichia coli [7] is 0.125 µg/mL (≈ 0.225 µM); against Escherichia coli [8], < 0.06 µg/mL; in experiment [9] it was > 256 µg/mL; with Escherichia coli [10] it was 0.06 µg/mL (≈ 0.108 µM).

In the case of `CC(C)(O/N=C(\C(=O)N[C@@H]1C(=O)N2C(C(=O)[O-])=C(C[n+]3ccccc3)CS[C@H]12)c1csc(N)n1)C(=O)O` [CEFTAZIDIME], the MIC in the experiment on Escherichia coli [11] is 0.125 µg/mL; in the experiment on Escherichia coli [1] it was 64 µg/mL; in experiment [2] it was > 256 µg/mL; in the experiment on Escherichia coli [12] it was 0.5 µg/mL; in the experiment with Escherichia coli [13] it was 0.5 µg/mL; with Escherichia coli [14], 0.125 µg/mL. Moreover, the MIC was determined as 64 µg/mL (≈ 117 µM) against Escherichia coli [3]; 0.125 µg/mL (≈ 0.229 µM) in the experiment on Escherichia coli [5]; 0.125 µg/mL in the experiment on Escherichia coli [15]; 2 µg/mL in experiment [16]; 0.25 µg/mL (≈ 0.457 µM) in the experiment with Escherichia coli [6]; 0.5 µg/mL (≈ 0.915 µM) in the experiment on Escherichia coli [4].

Take `CO/N=C(\C(=O)N[C@@H]1C(=O)N2C(C(=O)O)=C(COC(C)=O)CS[C@H]12)c1csc(N)n1` [CEFOTAXIME]: the MIC in experiment [17] is 1 µg/mL; in the experiment on Escherichia coli [18], 0.06 µg/mL; in the experiment on Escherichia coli [19], 0.06 µg/mL; in the experiment on Escherichia coli [20] it was < 0.06 µg/mL; with Escherichia coli [21], 0.125 µg/mL; with Escherichia coli [22], 0.125 µg/mL.

Regarding `CC1(C)S[C@@H]2[C@H](NC(=O)[C@H](N)c3ccc(O)cc3)C(=O)N2[C@H]1C(=O)O` [AMOXICILLIN], the MIC is 4 µg/mL in the experiment with Escherichia coli [11]; 8 µg/mL in the experiment on Escherichia coli [12]; 8 µg/mL in the experiment with Escherichia coli [13]; 8 µg/mL with Escherichia coli [14]; 8 µg/mL in the experiment on Escherichia coli [15]; 8 µg/mL in experiment [16].

Turning to `CC1(C)S[C@@H]2[C@H](NC(=O)[C@H](N)c3ccccc3)C(=O)N2[C@H]1C(=O)O` [AMPICILLIN], the MIC was > 256 µg/mL in the experiment on Escherichia coli [1]; > 256 µg/mL in experiment [2]; > 256 µg/mL against Escherichia coli [3]; 4 µg/mL (≈ 11.4 µM) against Escherichia coli [6]; 4 µg/mL (≈ 11.4 µM) with Escherichia coli [4].

In the case of `CC1(C)S[C@@H]2[C@H](NC(=O)[C@H](C(=O)O)c3ccsc3)C(=O)N2[C@H]1C(=O)O` [TICARCILLIN], the MIC is 2 µg/mL in the experiment with Escherichia coli [11]; > 256 µg/mL in the experiment on Escherichia coli [1]; > 256 µg/mL in experiment [2]; 2 µg/mL in the experiment with Escherichia coli [12]; 32 µg/mL in the experiment with Escherichia coli [13]; 4 µg/mL in the experiment with Escherichia coli [14]. In addition, the MIC in the experiment on Escherichia coli [3] was > 256 µg/mL; with Escherichia coli [5], 2 µg/mL (≈ 5.2 µM); in the experiment on Escherichia coli [15], 32 µg/mL; in experiment [16], 128 µg/mL; in the experiment with Escherichia coli [6] it was 8 µg/mL (≈ 20.8 µM); against Escherichia coli [4], 8 µg/mL (≈ 20.8 µM).

With `CCN1CCN(C(=O)N[C@@H](C(=O)N[C@@H]2C(=O)N3[C@@H]2SC(C)(C)[C@@H]3C(=O)O)c2ccccc2)C(=O)C1=O` [PIPERACILLIN], the MIC in the experiment on Escherichia coli [1] is > 256 µg/mL; in the experiment with Escherichia coli [23], 2 µg/mL; in experiment [2], > 256 µg/mL; in the experiment on Escherichia coli [24], 2 µg/mL; in experiment [25], 16 µg/mL; against Escherichia coli [3], > 256 µg/mL. The MIC with Escherichia coli [5] was determined as 1 µg/mL (≈ 1.93 µM); in the experiment on Escherichia coli [26], 1 µg/mL; with Escherichia coli [6] it was 2 µg/mL (≈ 3.86 µM); against Escherichia coli [4], 2 µg/mL (≈ 3.86 µM); with Escherichia coli [27] it was 4 µg/mL; with Escherichia coli [28] it was 4 µg/mL.

Take `C[C@@H](O)[C@H]1C(=O)N2C(C(=O)O)=C(SCCNC=N)C[C@H]12` [IMIPENEM ANHYDROUS]: the MIC in experiment [2] amounted to 0.5 µg/mL (≈ 1.67 µM).
